Test results: PubChem BioAssay AID330 (DTP/NCI, 2004)
“And” between values parts separate entries of the source, which are not always exact repeats. Equal values may be shown once. Inconclusive results and toxic doses are left out.

Tested on: P388 leukemia ip, CD2F1 mice, survival T/C
Assay: NCI In Vivo Anticancer Drug Screen. Data for tumor model P388 Leukemia (intraperitoneal) in CD2F1 (CDF1) mice
Settings: endpoint: median survival time, higher = longer survival
Procedure, shortened: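 Mice carrying the transplanted tumor received test compound or vehicle. Survival was recorded in each group, and the value is the treated-group measurement divided by that of the vehicle-treated control group.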

[1] = dose: 60.0 mg/kg/injection, schedule: Q01DX005 (ip), vehicle: Klucel (hydroxypropylcellulose) (HPC)
[2] = dose: 240.0 mg/kg/injection, schedule: Q01DX005 (ip), vehicle: Klucel (hydroxypropylcellulose) (HPC)
[3] = dose: 12.5 mg/kg/injection, schedule: Q01DX009 (ip), vehicle: saline with Tween-80
[4] = dose: 25.0 mg/kg/injection, schedule: Q01DX009 (ip), vehicle: saline with Tween-80
[5] = dose: 50.0 mg/kg/injection, schedule: Q01DX009 (ip), vehicle: saline with Tween-80
[6] = dose: 25.0 mg/kg/injection, schedule: Q01DX005 (ip), vehicle: saline with Tween-80
[7] = dose: 50.0 mg/kg/injection, schedule: Q01DX005 (ip), vehicle: saline with Tween-80
[8] = dose: 100.0 mg/kg/injection, schedule: Q01DX005 (ip), vehicle: saline with Tween-80

CCOc1c(N=Nc2ccc([N+](=O)[O-])cc2)c(C)nn1C(=S)SC
T/C (dose: 1.87 mg/kg/injection, schedule: Q01DX005 (ip), vehicle: Klucel (hydroxypropylcellulose) (HPC)): 108 % of control
T/C (dose: 3.75 mg/kg/injection, schedule: Q01DX005 (ip), vehicle: Klucel (hydroxypropylcellulose) (HPC)): 105 % of control
T/C (dose: 7.5 mg/kg/injection, schedule: Q01DX005 (ip), vehicle: Klucel (hydroxypropylcellulose) (HPC)): 105 % of control and 89 % of control
T/C (dose: 15.0 mg/kg/injection, schedule: Q01DX005 (ip), vehicle: Klucel (hydroxypropylcellulose) (HPC)): 97 % of control
T/C [1]: 90 % of control
T/C [2]: 87 % of control

CC(C)(O)C1C2OC(=O)C1C1(O)CC3OC34C(=O)OC2C14C (stereo not given)
T/C [3]: 100 % of control
T/C [4]: 100 % of control
T/C (dose: 33.0 mg/kg/injection, schedule: Q04DX003 (ip), vehicle: saline with Tween-80): 104 % of control
T/C [5]: 100 % of control
T/C (dose: 50.0 mg/kg/injection, schedule: Q04DX003 (ip), vehicle: saline with Tween-80): 109 % of control

CC(=O)NC(Cc1ccc(N(CCCl)CCCl)cc1)C(=O)NC(CC(C)C)C(=O)O (stereo not given)
T/C (dose: 5.0 mg/kg/injection, schedule: Q04DX003 (ip), vehicle: water): 100 % of control
T/C (dose: 8.4 mg/kg/injection, schedule: Q04DX003 (ip), vehicle: saline with Tween-80): 111 % of control
T/C (dose: 10.0 mg/kg/injection, schedule: Q04DX003 (ip), vehicle: water): 95 % of control
T/C (dose: 18.9 mg/kg/injection, schedule: Q04DX003 (ip), vehicle: saline with Tween-80): 121 % of control
T/C (dose: 20.0 mg/kg/injection, schedule: Q04DX003 (ip), vehicle: water): 118 % of control
T/C (dose: 42.6 mg/kg/injection, schedule: Q04DX003 (ip), vehicle: saline with Tween-80): 173 % of control
T/C (dose: 64.0 mg/kg/injection, schedule: Q04DX003 (ip), vehicle: saline with Tween-80): 166 % of control
T/C (dose: 96.0 mg/kg/injection, schedule: Q04DX003 (ip), vehicle: saline with Tween-80): 180 % of control

CC(C)(C)C1CCN(Cc2ccccc2)CC1
T/C [6]: 103 % of control
T/C [7]: 103 % of control
T/C [8]: 100 % of control

CC1c2ccoc2CC2C1C(O)C(O)C1C(C)(C)CCCC21C (stereo not given)
T/C (dose: 100.0 mg/kg/injection, schedule: Q04DX002 (ip), vehicle: suspension in saline): 106 % of control
T/C (dose: 200.0 mg/kg/injection, schedule: Q04DX002 (ip), vehicle: suspension in saline): 106 % of control
T/C (dose: 400.0 mg/kg/injection, schedule: Q04DX002 (ip), vehicle: suspension in saline): 98 % of control

O=C(CSC(=S)N1CCCCC1)c1ccccc1
T/C (dose: 12.5 mg/kg/injection, schedule: Q01DX009 (ip), vehicle: distilled water + Tween-80): 95 % of control
T/C (dose: 25.0 mg/kg/injection, schedule: Q01DX009 (ip), vehicle: distilled water + Tween-80): 101 % of control
T/C (dose: 50.0 mg/kg/injection, schedule: Q01DX009 (ip), vehicle: distilled water + Tween-80): 100 % of control
T/C (dose: 100.0 mg/kg/injection, schedule: Q01DX009 (ip), vehicle: distilled water + Tween-80): 101 % of control
T/C (dose: 200.0 mg/kg/injection, schedule: Q01DX009 (ip), vehicle: distilled water + Tween-80): 99 % of control

CC1=CC(O)C(O)C2(C)C1CC1OC(=O)CC3C(C)C(O)C(=O)C2C13CO (stereo not given)
T/C (dose: 12.5 mg/kg/injection, schedule: Q01DX005 (ip), vehicle: saline with Tween-80): 97 % of control
T/C [6]: 100 % of control
T/C [7]: 102 % of control

COc1ccc(C(c2cc3c(cc2O)OCO3)N2CCN(C(c3ccc(OC)c(OC)c3)c3cc4c(cc3O)OCO4)CC2)cc1OC (stereo not given)
T/C [1]: 89 % of control
T/C (dose: 120.0 mg/kg/injection, schedule: Q01DX005 (ip), vehicle: Klucel (hydroxypropylcellulose) (HPC)): 90 % of control
T/C [2]: 105 % of control

CN(C)CC(O)C(=O)O (stereo not given)
T/C (dose: 25.0 mg/kg/injection, schedule: Q01DX005 (ip), vehicle: saline): 96 % of control
T/C (dose: 50.0 mg/kg/injection, schedule: Q01DX005 (ip), vehicle: saline): 98 % of control
T/C (dose: 100.0 mg/kg/injection, schedule: Q01DX005 (ip), vehicle: saline): 95 % of control
T/C (dose: 200.0 mg/kg/injection, schedule: Q01DX005 (ip), vehicle: saline): 96 % of control

CCC(c1ccc(Cl)cc1)C(C#N)c1ccccc1 (stereo not given)
T/C (dose: 100.0 mg/kg/injection, schedule: Q04DX003 (ip), vehicle: saline with Tween-80): 100 % of control
T/C (dose: 200.0 mg/kg/injection, schedule: Q04DX003 (ip), vehicle: saline with Tween-80): 97 % of control
T/C (dose: 400.0 mg/kg/injection, schedule: Q04DX003 (ip), vehicle: saline with Tween-80): 100 % of control

COC1/C=C\OC2(C)Oc3c(C)c(O)c4c(c3C2=O)C(=O)C(Br)=C(NC(=O)/C(C)=C\C=C/C(C)C(O)C(C)C(O)C(C)C(OC(C)=O)C1C)C4=O (stereo not given)
T/C (dose: 25.0 mg/kg/injection, schedule: Q01DX009 (ip), vehicle: Klucel (hydroxypropylcellulose) (HPC)): 102 % of control
T/C (dose: 50.0 mg/kg/injection, schedule: Q01DX009 (ip), vehicle: Klucel (hydroxypropylcellulose) (HPC)): 97 % of control
T/C (dose: 100.0 mg/kg/injection, schedule: Q01DX009 (ip), vehicle: Klucel (hydroxypropylcellulose) (HPC)): 102 % of control
T/C (dose: 200.0 mg/kg/injection, schedule: Q01DX009 (ip), vehicle: Klucel (hydroxypropylcellulose) (HPC)): 100 % of control

CCCCN(CCCC)CCC(O)c1cc(-c2ccc(C(F)(F)F)cc2)nc(C(F)(F)F)c1 (stereo not given)
T/C (dose: 6.25 mg/kg/injection, schedule: Q01DX009 (ip), vehicle: saline with Tween-80): 89 % of control
T/C [3]: 94 % of control
T/C [4]: 110 % of control

COc1ccc(/C=C/C(C)=N/NC(N)=S)cc1
T/C (dose: 6.0 mg/kg/injection, schedule: Q01DX005 (ip), vehicle: Klucel + Tween-80): 113 % of control
T/C (dose: 12.0 mg/kg/injection, schedule: Q01DX005 (ip), vehicle: Klucel + Tween-80): 104 % of control

O=[N+]([O-])/C=C/c1cc2c(ccc3ccccc32)[nH]1
T/C [7]: 91 % of control
T/C [8]: 93 % of control
T/C (dose: 200.0 mg/kg/injection, schedule: Q01DX005 (ip), vehicle: saline with Tween-80): 99 % of control

CCN(CC)CCNC(=O)Cc1cccc2c(=O)cc(-c3ccccc3)oc12
T/C (dose: 50.0 mg/kg/injection, schedule: Q01DX009 (ip), vehicle: saline): 108 % of control
T/C (dose: 100.0 mg/kg/injection, schedule: Q01DX009 (ip), vehicle: saline): 99 % of control
T/C (dose: 200.0 mg/kg/injection, schedule: Q01DX009 (ip), vehicle: saline): 97 % of control

CC(C)(C)OC(=O)N1CCCC1C(=O)O (stereo not given)
T/C (dose: 50.0 mg/kg/injection, schedule: Q01DX005 (ip), vehicle: Klucel (hydroxypropylcellulose) (HPC)): 100 % of control
T/C (dose: 100.0 mg/kg/injection, schedule: Q01DX005 (ip), vehicle: Klucel (hydroxypropylcellulose) (HPC)): 106 % of control
T/C (dose: 200.0 mg/kg/injection, schedule: Q01DX005 (ip), vehicle: Klucel (hydroxypropylcellulose) (HPC)): 99 % of control

CCOC(=O)Nc1cc2c(c(N)n1)N=C(c1ccccc1)CN2C
T/C (dose: 12.5 mg/kg/injection, schedule: Q01DX001 (ip), vehicle: saline with Tween-80): 111 % of control
T/C (dose: 25.0 mg/kg/injection, schedule: Q01DX001 (ip), vehicle: saline with Tween-80): 101 % of control
T/C (dose: 50.0 mg/kg/injection, schedule: Q01DX001 (ip), vehicle: saline with Tween-80): 111 % of control and 97 % of control
T/C (dose: 100.0 mg/kg/injection, schedule: Q01DX001 (ip), vehicle: saline with Tween-80): 112 % of control
T/C (dose: 200.0 mg/kg/injection, schedule: Q01DX001 (ip), vehicle: saline with Tween-80): 106 % of control

O=C(NC(Cc1ccccc1)C(=O)O)OCc1ccccc1 (stereo not given) (tested in a mixture with another compound)
T/C (dose: 6.25 mg/kg/injection, schedule: Q01DX005 (ip), vehicle: Klucel (hydroxypropylcellulose) (HPC)): 109 % of control
T/C (dose: 12.5 mg/kg/injection, schedule: Q01DX005 (ip), vehicle: Klucel (hydroxypropylcellulose) (HPC)): 106 % of control
T/C (dose: 25.0 mg/kg/injection, schedule: Q01DX005 (ip), vehicle: Klucel (hydroxypropylcellulose) (HPC)): 94 % of control

O=C(OC1CC2CCC1C2)c1cc([N+](=O)[O-])cc([N+](=O)[O-])c1 (stereo not given)
T/C [5]: 107 % of control
T/C (dose: 100.0 mg/kg/injection, schedule: Q01DX009 (ip), vehicle: saline with Tween-80): 100 % of control
T/C (dose: 100.0 mg/kg/injection, schedule: Q04DX002 (ip), vehicle: saline with Tween-80): 108 % of control
T/C (dose: 200.0 mg/kg/injection, schedule: Q01DX009 (ip), vehicle: saline with Tween-80): 90 % of control
T/C (dose: 200.0 mg/kg/injection, schedule: Q04DX002 (ip), vehicle: saline with Tween-80): 105 % of control
T/C (dose: 400.0 mg/kg/injection, schedule: Q04DX002 (ip), vehicle: saline with Tween-80): 100 % of control
